Converted amounts (≈) assume the structure as drawn.
What was measured:
[1] = target: T1, FL AKT1 (Homo sapiens, UniProt P31749); test: Full-length AKT enzyme assay (substrate phosphorylation, SPA); format: biochemical; details: 4 uM ATP
T1 construct: Full-length human AKT1 gene was amplified by PCR; His tag (from vector pFastBacHTb; own knowledge that this vector adds an N-terminal 6xHis and TEV site) (N); made in house; host or cells: baculovirus; virus produced in Sf9, protein expressed in T. ni insect cells
T1 sequence (P31749 whole entry): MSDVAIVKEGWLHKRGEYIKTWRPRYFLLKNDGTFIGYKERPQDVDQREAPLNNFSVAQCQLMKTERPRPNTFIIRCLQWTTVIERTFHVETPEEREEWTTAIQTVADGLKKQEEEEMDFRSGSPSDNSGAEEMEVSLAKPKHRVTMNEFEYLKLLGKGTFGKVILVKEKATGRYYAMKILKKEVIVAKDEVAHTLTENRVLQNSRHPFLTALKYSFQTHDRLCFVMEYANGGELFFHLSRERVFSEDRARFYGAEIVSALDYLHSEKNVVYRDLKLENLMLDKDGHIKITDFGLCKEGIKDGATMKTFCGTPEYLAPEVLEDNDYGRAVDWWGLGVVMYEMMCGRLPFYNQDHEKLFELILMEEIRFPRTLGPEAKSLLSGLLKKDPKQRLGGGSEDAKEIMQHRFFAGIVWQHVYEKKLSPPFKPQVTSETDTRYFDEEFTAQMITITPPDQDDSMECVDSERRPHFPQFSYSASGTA

[2] = Solubility in 50 mM phosphate buffer at pH 7.4; format: physicochemical; details: aqueous buffer
[3] = target: T2, FL AKT2 (Homo sapiens, UniProt P31751); test: Full-length AKT enzyme assay (substrate phosphorylation, SPA); format: biochemical; details: 4 uM ATP
T2 construct: 0.025 um, FL AKT2
T2 sequence (P31751 whole entry): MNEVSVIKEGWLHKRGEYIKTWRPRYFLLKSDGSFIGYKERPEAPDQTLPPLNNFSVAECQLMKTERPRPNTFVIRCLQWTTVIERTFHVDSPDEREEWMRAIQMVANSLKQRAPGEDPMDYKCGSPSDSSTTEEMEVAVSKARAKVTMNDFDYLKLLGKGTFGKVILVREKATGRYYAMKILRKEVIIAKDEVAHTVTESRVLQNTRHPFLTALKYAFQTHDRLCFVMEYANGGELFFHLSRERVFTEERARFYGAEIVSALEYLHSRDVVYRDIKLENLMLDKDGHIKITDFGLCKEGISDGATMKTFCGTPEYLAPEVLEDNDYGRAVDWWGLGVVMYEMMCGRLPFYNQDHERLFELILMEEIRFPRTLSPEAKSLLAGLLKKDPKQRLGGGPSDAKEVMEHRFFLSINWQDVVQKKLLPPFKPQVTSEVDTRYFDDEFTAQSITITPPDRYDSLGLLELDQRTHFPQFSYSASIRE

[4] = test system: HFF (normal human foreskin fibroblast); test: Methylene Blue Growth Inhibition Assay; format: cell-based; details: 72 h, 3 days
Procedure: (§1) Tumor cell lines used in this assay were BT474 (human breast carcinoma) and LNCaP (lymph node metastasis of prostate cancer). HFF (normal human foreskin fibroblast) was also included. All cell lines were cultured in RPMI 1640 media (Invitrogen Corporation 22400-071) containing 10% Fetal Bovine Serum (FBS) at 37° C. in a humidified 5% CO2 incubator. Cells were harvested using trypsin/EDTA, counted using a hemacytometer and plated in 96-well tissue culture plates (Costar 35-3075), 100 uL per well, at the following densities: BT474 15,000 cells/well, LNCaP 5,000 cells/well and HFF 5,000 cells/well. 10 mM stocks of compounds in DMSO were serially diluted in DMSO through nine 3-fold dilutions in 96-well plates (Costar Corning 3363), and stored at −80C. The next day, compound dilutions were thawed and 4 uL of each transferred to 662 uL RPMI 1640+100 ug/mL gentamicin, resulting in twice the final required test concentrations. 100 uL of compounds diluted in RPMI 1640 were added to all cell lines. The final concentration of DMSO in all wells, including controls, was 0.3%. Cells were incubated at 37C, 5% CO2 for 3 days. Medium was removed by aspiration. Cell biomass was estimated by staining cells with 80 uL methylene blue (Sigma M9140, 0.5% in 50:50 ethanol:water), and incubating at room temperature for 1 hour. Stain was aspirated and the plates rinsed by immersion in water, then air-dried. Stain was released from cells by adding 100 uL of solubilizing solution (1% N-lauroyl sarcosine, sodium salt, Sigma L5125, in PBS) and incubating at room temperature for at least 30 minutes. Plates were shaken and the optical density at 620 nm was measured on a microplate reader. Percent inhibition of cell growth was calculated relative to vehicle-treated control wells. Concentration of compound that inhibits 50% of cell growth (IC50) was interpolated using non-linear regression (Levenberg-Marquadt) and the equation, y=Vmax*(1−(x̂n/K̂n+x̂n)))+Y2. [Ref: Mager, M. E. (1972) Data Analysis in Biochemistry and Biophysics. New York: Academic Press]

[5] = test system: BT474 (human breast carcinoma); test: Methylene Blue Growth Inhibition Assay; format: cell-based; details: BT-474, 72 h, BT474, 3 days
Procedure: as §1

[6] = test system: LNCaP (lymph node metastasis of prostate cancer); test: Methylene Blue Growth Inhibition Assay; format: cell-based; details: Homo sapiens, 72 h, 3 days
Procedure: as §1

SMILES	IC50 [1] [µM]	solubility [2] [µM]	IC50 [3] [µM]	IC50 [4] [µM]	IC50 [5] [µM]	IC50 [6] [µM]
CCn1c(-c2nonc2N)nc2c(C#CC(C)(C)O)ncc(OCCCN3CCCCC3)c21 [Example 1, 4-(2-(4-amino-1,2,5-oxadiazol-3-yl)-1-ethyl-7-{[3-(1-piperidinyl)propyl]oxy}-1H-imidazo[4,5-c]pyridin-4-yl)-2-methyl-3-butyn-2-ol]	0.003	35 (≈ 15.9 µg/mL)	0.025	17.7	0.496	0.096
CCn1c(-c2nonc2N)nc2c(C#CC(C)(C)O)ncc(OCCCN3CCCC3)c21 [Example 2, 4-(2-(4-amino-1,2,5-oxadiazol-3-yl)-1-ethyl-7-{[3-(1-pyrrolidinyl)propyl]oxy}-1H-imidazo[4,5-c]pyridin-4-yl)-2-methyl-3-butyn-2-ol]	0.002	152 (≈ 66.8 µg/mL)	0.016	> 15	0.437	0.096
CCn1c(-c2nonc2N)nc2c(C#CC(C)(C)O)ncc(OCC3(CN)CC3)c21 [Example 15, 4-[7-({[1-(aminomethyl)cyclopropyl]methyl}oxy)-2-(4-amino-1,2,5-oxadiazol-3-yl)-1-ethyl-1H-imidazo[4,5-c]pyridin-4-yl]-2-methyl-3-butyn-2-ol]		160 (≈ 65.8 µg/mL)		> 30	0.093	0.11
CCCC(CCN)Oc1cnc(C#CC(C)(C)O)c2nc(-c3nonc3N)n(CC)c12 (stereo not drawn) [Example 16, 4-[7-{[1-(2-aminoethyl)butyl]oxy}-2-(4-amino-1,2,5-oxadiazol-3-yl)-1-ethyl-1H-imidazo[4,5-c]pyridin-4-yl]-2-methyl-3-butyn-2-ol]		179 (≈ 76.5 µg/mL)		1.08	0.192	0.007
CCn1c(-c2nonc2N)nc2c(C#CC(C)(C)O)ncc(OC(CCN)C3CCCCC3)c21 (stereo not drawn) [Example 18, 4-[7-[(3-amino-1-cyclohexylpropyl)oxy]-2-(4-amino-1,2,5-oxadiazol-3-yl)-1-ethyl-1H-imidazo[4,5-c]pyridin-4-yl]-2-methyl-3-butyn-2-ol]		112 (≈ 52.4 µg/mL)		3.21	0.051	0.061
